This note sets out measurements from ChEMBL document CHEMBL5634085, “Design, synthesis and antitrypanosomatid activity of 2-nitroimidazole-3,5-disubstituted isoxazole compounds based on benznidazole” (Eur J Med Chem, 2023).

One data set concerns Leishmania amazonensis. Description: Antileishmanial activity against Leishmania amazonensis IFLA/BR/1967/PH8 amastigotes infected in mouse peritoneal macrophage assessed as inhibition of parasite growth pre-infected in cells for 4 hrs followed by compound addition and measured after 24 hrs by Giemsa staining based analysis. The data set is classed as functional, organism-based. The conditions noted are these: IFLA/BR/1967/PH8, Peritoneal macrophage.

Data set [1] in a line: Cytotoxicity against monkey LLC-MK2 cells incubated for 72 hrs by MTT assay. The data set is classed as toxicity, cell-based, Macaca mulatta. The conditions noted are these: rhesus monkey.
The nature of data set [2]: Selectivity index, ratio of CC50 for cytotoxicity against monkey LLC-MK2 cells to IC50 for antileishmanial activity against Leishmania amazonensis IFLA/BR/1967/PH8 amastigotes infected in mouse peritoneal macrophage. The data set is classed as toxicity, cell-based. Conditions: read-out: Ratio CC50/IC50.
The test system of the next data set is Trypanosoma cruzi. Kind of data set: Antitrypanosomal activity against Trypanosoma cruzi Tulahuen lacZ expressing beta-galactosidase amastigotes infected in monkey LLC-MK2 cells assessed as inhibition of amastigotes pre-infected in cells for 48 hrs followed by compound addition and measured after 72 hrs by CPRG reagent based absorbance analysis. The data set is classed as functional, organism-based.

Data set [3] can be described thus: Selectivity index, ratio of CC50 for monkey LLC-MK2 cells to IC50 for Trypanosoma cruzi Tulahuen lacZ expressing beta-galactosidase amastigotes infected monkey LLC-MK2 cells. Conditions: read-out: Ratio CC50/IC50. In kind it is toxicity.

For orientation: IC50 means the midpoint of a concentration-inhibition curve. Usually CC50 stands for the concentration that lowers cell viability or growth by half.

With `COc1cc(OC)cc(-c2cc(Cn3ccnc3[N+](=O)[O-])on2)c1`, the IC50 in the data set with Leishmania amazonensis is 10.1 µM; in the data set on Trypanosoma cruzi, 6 µM. This compound returned a CC50 at 72 h in data set [1] above 50 µM. Further, the selectivity ratio in data set [2] is above 4.9; in data set [3], above 8.3.
As for `Cc1ccc(-c2cc(Cn3ccnc3[N+](=O)[O-])on2)cc1`, the results for the IC50 in the data set on Leishmania amazonensis and in the data set with Trypanosoma cruzi were 26.7 µM and 9.3 µM, respectively. Besides, the CC50 at 72 h in data set [1] is above 50 µM. Also, the selectivity ratio in data set [2] was above 1.9; in data set [3], above 5.4.
Consider `COc1ccc(-c2cc(Cn3ccnc3[N+](=O)[O-])on2)cc1Cl`, for which the figures for the IC50 with Leishmania amazonensis and in the data set with Trypanosoma cruzi were 31.3 µM and 1 µM, respectively. In addition, the CC50 at 72 h in data set [1] is above 50 µM. Moreover, the selectivity ratio in data set [2] is above 1.6; in data set [3], above 49.
For the compound `COc1ccc(-n2cc(-c3cc(OC)c(OC)c(OC)c3)nn2)cc1OC`, the IC50 in the data set on Leishmania amazonensis was 29.2 µM.
In the case of `COc1cc(-c2cc(Cn3ccnc3[N+](=O)[O-])on2)cc(OC)c1OC`, the IC50 was determined as 14.6 µM in the data set on Leishmania amazonensis and 1.9 µM with Trypanosoma cruzi. The CC50 at 72 h in data set [1] is above 50 µM. In addition, the results for the selectivity ratio in data set [2] and in data set [3] were above 3.4 and above 25.9, respectively.
Taken in the same sequence, the figures for `N#Cc1cccc(-c2cc(Cn3ccnc3[N+](=O)[O-])on2)c1` were 36.6 µM, 40.4 µM, above 50 µM, above 1.4 and above 1.2.
For the compound `COc1ccc(-c2cc(-c3cc(OC)c(OC)c(OC)c3)on2)cc1OC`, the IC50 in the data set on Leishmania amazonensis stood at 0.4 µM.
In the case of `COc1cccc(-c2cc(Cn3ccnc3[N+](=O)[O-])on2)c1`, the values for the IC50 in the data set with Leishmania amazonensis and in the data set on Trypanosoma cruzi were 12.5 µM and 11.2 µM, respectively. For the same compound, the CC50 at 72 h in data set [1] is above 50 µM. Besides, the selectivity ratio is above 4 in data set [2] and above 4.4 in data set [3].
Turning to `O=[N+]([O-])c1nccn1Cc1cc(-c2ccc(F)c(F)c2)no1`, the IC50 with Leishmania amazonensis amounted to 17.7 µM; in the data set with Trypanosoma cruzi, 6.5 µM. This compound registered a CC50 at 72 h in data set [1] above 50 µM. In addition, the selectivity ratio in data set [2] was above 2.8; in data set [3] it was above 7.6.
Turning to `COc1cc(-c2cc(-c3ccc4c(c3)OCO4)no2)cc(OC)c1OC`, the IC50 with Leishmania amazonensis amounted to 1.4 µM.
For `O=[N+]([O-])c1nccn1Cc1cc(-c2ccc(N3CCN(c4ccccc4)CC3)cc2)no1`, the IC50 in the data set on Leishmania amazonensis and in the data set on Trypanosoma cruzi was above 100 µM throughout. In data set [1], this compound displayed a CC50 at 72 h above 50 µM. Besides, the figures for the selectivity ratio in data set [2] and in data set [3] were above 0.5 and above 1, respectively.
As to `O=[N+]([O-])c1cccc(-c2cc(Cn3ccnc3[N+](=O)[O-])on2)c1`, the concentration for half-maximal inhibition (IC50) in the data set on Leishmania amazonensis came to 35.1 µM; with Trypanosoma cruzi, 5.3 µM. The CC50 at 72 h in data set [1] is above 50 µM. Also, the results for the selectivity ratio in data set [2] and in data set [3] were above 1.4 and above 9.4, respectively.
Taken in the same sequence, the figures for `O=[N+]([O-])c1nccn1Cc1cc(-c2cccnc2)no1` were 73.8 µM, 7.8 µM, above 50 µM, above 0.7 and above 6.4.
For `N=C(N)c1ccc(OCCCCCOc2ccc(C(=N)N)cc2)cc1` [PENTAMIDINE], in the data set on Leishmania amazonensis, the IC50 was 16.8 µM.
Consider `O=[N+]([O-])c1nccn1Cc1cc(-c2ccccn2)no1`, for which the IC50 in the data set on Leishmania amazonensis was determined as 37.8 µM; in the data set with Trypanosoma cruzi it was 7.5 µM. This compound also returned a CC50 at 72 h in data set [1] above 50 µM. Further, the selectivity ratio in data set [2] was above 1.3; in data set [3], above 6.7.
As to `O=[N+]([O-])c1nccn1Cc1cc(-c2ccc(Cl)c(Cl)c2)no1`, the IC50 came out at 18.9 µM with Leishmania amazonensis and 2.2 µM in the data set on Trypanosoma cruzi. For the same compound, the CC50 at 72 h in data set [1] is above 50 µM. For the same compound, the values for the selectivity ratio in data set [2] and in data set [3] were above 2.6 and above 22.2, respectively.
Turning to `COc1ccc(-c2cc(Cn3ccnc3[N+](=O)[O-])on2)cc1`, the IC50 in the data set with Leishmania amazonensis was 17.3 µM; with Trypanosoma cruzi, 1.9 µM. Also, the CC50 at 72 h in data set [1] is above 50 µM. Moreover, the selectivity ratio is above 2.9 in data set [2] and above 25.6 in data set [3].
With `O=[N+]([O-])c1nccn1Cc1cc(-c2ccc(Cl)cc2)no1`, the values for the IC50 in the data set on Leishmania amazonensis and with Trypanosoma cruzi were 26.6 µM and 1.5 µM, respectively. Besides, the CC50 at 72 h in data set [1] came to 48 µM. For the same compound, the selectivity ratio in data set [2] was 1.8; in data set [3] it was 32.5.
`COc1cc(-c2cn(-c3cc(OC)c(OC)c(OC)c3)nn2)cc(OC)c1OC`: the IC50 in the data set on Leishmania amazonensis came to 9.4 µM.
Consider `O=[N+]([O-])c1nccn1Cc1cc(-c2ccc(N3CCCC3)cc2)no1`, for which the IC50 with Leishmania amazonensis is 9.9 µM; with Trypanosoma cruzi it was 2.3 µM. In addition, the CC50 at 72 h in data set [1] was above 50 µM. The selectivity ratio in data set [2] is above 5; in data set [3], above 21.7.
Consider `Nc1ccc(-c2cc(Cn3ccnc3[N+](=O)[O-])on2)cc1`, for which the IC50 in the data set on Leishmania amazonensis was determined as 21.7 µM; with Trypanosoma cruzi, 6.2 µM. The same compound gave a CC50 at 72 h in data set [1] above 50 µM. Moreover, the selectivity ratio is above 2.3 in data set [2] and above 8.1 in data set [3].
For the compound `CSc1ccc(-c2cc(Cn3ccnc3[N+](=O)[O-])on2)cc1`, the IC50 in the data set on Leishmania amazonensis was determined as 22.4 µM; with Trypanosoma cruzi, 31.4 µM. The CC50 at 72 h in data set [1] is above 50 µM. For the same compound, the selectivity ratio in data set [2] is above 2.2; in data set [3] it was above 1.6.
On to `O=[N+]([O-])c1nccn1Cc1cc(-c2ccc(N3CCCCCC3)cc2)no1`, for which the IC50 in the data set on Leishmania amazonensis worked out at 25.1 µM; with Trypanosoma cruzi, 3.9 µM. In addition, the CC50 at 72 h in data set [1] is above 50 µM. The selectivity ratio in data set [2] is above 1.9; in data set [3] it was above 12.8.
For `N#Cc1ccc(-c2cc(Cn3ccnc3[N+](=O)[O-])on2)cc1`, the IC50 with Leishmania amazonensis was 34.6 µM; in the data set with Trypanosoma cruzi it was above 100 µM. In addition, the CC50 at 72 h in data set [1] is above 50 µM. For the same compound, the selectivity ratio in data set [2] is above 1.4; in data set [3], above 0.6.
On to `COc1ccc(-c2cc(Cn3ccnc3[N+](=O)[O-])on2)cc1O`, for which the IC50 in the data set on Leishmania amazonensis worked out at 17.1 µM; in the data set with Trypanosoma cruzi, 3 µM. The CC50 at 72 h in data set [1] was above 50 µM. The selectivity ratio in data set [2] is above 2.9; in data set [3], above 16.6.
In the same order, the values of `O=[N+]([O-])c1nccn1Cc1cc(-c2ccc(Cl)cc2Cl)no1` are 33.7 µM, 3.7 µM, 43.2 µM, 1.3 and above 11.4.
In the same order, the values of `O=[N+]([O-])c1nccn1Cc1cc(-c2cccc(Cl)c2)no1` are 10.2 µM, 9.3 µM, above 50 µM, above 4.9 and above 5.3.
Regarding `COc1ccccc1-c1cc(Cn2ccnc2[N+](=O)[O-])on1`, the IC50 with Leishmania amazonensis worked out at 12.7 µM; with Trypanosoma cruzi, 4.6 µM. The CC50 at 72 h in data set [1] is above 50 µM. In addition, the selectivity ratio in data set [2] was above 3.9; in data set [3] it was above 10.9.
On to `O=[N+]([O-])c1nccn1Cc1cc(-c2ccc(Br)cc2)no1`, for which the IC50 was determined as 17.4 µM with Leishmania amazonensis and 5.1 µM in the data set on Trypanosoma cruzi. The compound also showed a CC50 at 72 h in data set [1] of 43 µM. Besides, the selectivity ratio in data set [2] is above 2.5; in data set [3] it was 8.4.
For the compound `COc1cc(-n2cc(-c3ccc4c(c3)OCO4)nn2)cc(OC)c1OC`, in the data set with Leishmania amazonensis, the IC50 was determined as 4.4 µM.
Turning to `O=[N+]([O-])c1nccn1Cc1cc(-c2ccc(OC(F)(F)F)cc2)no1`, the IC50 in the data set with Leishmania amazonensis was 35.6 µM; in the data set with Trypanosoma cruzi it was 15.2 µM. For the same compound, in data set [1], the CC50 at 72 h is above 50 µM. Moreover, the figures for the selectivity ratio in data set [2] and in data set [3] were above 1.4 and above 3.3, respectively.
Regarding `C[C@@H]1[C@H](O)[C@@H](C)/C=C/C=C/C=C/C=C/C=C/C=C/C=C/[C@H](O[C@@H]2O[C@H](C)[C@@H](O)[C@H](N)[C@@H]2O)C[C@@H]2O[C@](O)(C[C@@H](O)C[C@@H](O)[C@H](O)CC[C@@H](O)C[C@@H](O)CC(=O)O[C@H]1C)C[C@H](O)[C@H]2C(=O)O` [AMPHOTERICIN B], the IC50 in the data set with Leishmania amazonensis was determined as 2.3 µM. For the same compound, the CC50 at 72 h in data set [1] is 22.8 µM. The selectivity ratio in data set [2] was 9.87.
Regarding `COc1cc(-c2cc(-c3cc(OC)c(OC)c(OC)c3)on2)cc(OC)c1OC`, in the data set on Leishmania amazonensis, the IC50 is 2.9 µM.
Turning to `O=[N+]([O-])c1nccn1Cc1cc(-c2ccc(F)cc2)no1`, the IC50 is 24.2 µM in the data set with Leishmania amazonensis and 3.3 µM in the data set on Trypanosoma cruzi. Besides, the CC50 at 72 h in data set [1] is above 50 µM. The selectivity ratio in data set [2] is above 2.1; in data set [3], above 15.3.
Regarding `COc1ccc(-c2cn(-c3cc(OC)c(OC)c(OC)c3)nn2)cc1OC`, in the data set with Leishmania amazonensis, the IC50 worked out at 5.6 µM.
Take `O=[N+]([O-])c1ccc(-c2cc(Cn3ccnc3[N+](=O)[O-])on2)cc1`: the IC50 is 32.4 µM in the data set with Leishmania amazonensis and 18.3 µM in the data set with Trypanosoma cruzi. Also, the cytotoxic concentration (CC50) at 72 h in data set [1] is 46.1 µM. The selectivity ratio in data set [2] amounted to 1.4; in data set [3], 2.5.
On to `O=[N+]([O-])c1nccn1Cc1cc(-c2ccncc2)no1`, for which the values for the 50% inhibitory concentration (IC50) in the data set on Leishmania amazonensis and with Trypanosoma cruzi were 16.3 µM and 3.1 µM, respectively. The compound further gave a CC50 at 72 h in data set [1] above 50 µM. Besides, the selectivity ratio in data set [2] is above 3; in data set [3], above 16.3.
As to `O=[N+]([O-])c1nccn1Cc1cc(-c2ccccc2)no1`, the IC50 came to 33.1 µM in the data set with Leishmania amazonensis and 4 µM with Trypanosoma cruzi. The 50% cytotoxic concentration (CC50) at 72 h in data set [1] is above 50 µM. The selectivity ratio in data set [2] is above 1.5; in data set [3], above 12.3.
Turning to `O=[N+]([O-])c1nccn1Cc1cc(-c2ccc(N3CCOCC3)cc2)no1`, the figures for the IC50 in the data set with Leishmania amazonensis and in the data set with Trypanosoma cruzi were 54.1 µM and 2.8 µM, respectively. In data set [1], this compound showed a CC50 at 72 h above 50 µM. Further, the selectivity ratio in data set [2] was above 0.9; in data set [3], above 18.
With `COc1ccc(-c2cc(-c3cc(OC)c(OC)c(OC)c3)no2)cc1OC`, in the data set with Leishmania amazonensis, the IC50 was determined as 0.7 µM.
